Source: the CheMixHub viscosity set
Several values for one entry are separate records, joined by “and”; a condition that tells them apart may be missing. Identical values can stand only once.

Test: xn = mol fraction of the nth substance listed

C1CCOC1 + CO
Conditions | viscosity
298 K, 101 kPa, x1 = 0.0397 | 0.527 mPa·s
298 K, 101 kPa, x1 = 0.0463 | 0.5241 mPa·s
298 K, 101 kPa, x1 = 0.0629 | 0.5179 mPa·s
298 K, 101 kPa, x1 = 0.0984 | 0.5053 mPa·s
298 K, 101 kPa, x1 = 0.1593 | 0.49 mPa·s
298 K, 101 kPa, x1 = 0.2295 | 0.4758 mPa·s
298 K, 101 kPa, x1 = 0.3081 | 0.463 mPa·s
298 K, 101 kPa, x1 = 0.3952 | 0.4525 mPa·s
298 K, 101 kPa, x1 = 0.5068 | 0.4445 mPa·s
298 K, 101 kPa, x1 = 0.6498 | 0.4398 mPa·s
298 K, 101 kPa, x1 = 0.8052 | 0.4449 mPa·s
298.15 K, 101 kPa, x1 = 0.3 | 0.4761 mPa·s
298.15 K, 101 kPa, x1 = 0.3076 | 0.5025 mPa·s and 0.5015 mPa·s and 0.515 mPa·s
303 K, 101.3 kPa, x1 = 0.0471 | 0.474 mPa·s
303 K, 101.3 kPa, x1 = 0.1 | 0.452 mPa·s
303 K, 101.3 kPa, x1 = 0.1599 | 0.435 mPa·s
303 K, 101.3 kPa, x1 = 0.2285 | 0.406 mPa·s
303 K, 101.3 kPa, x1 = 0.3075 | 0.38 mPa·s
303 K, 101.3 kPa, x1 = 0.3998 | 0.373 mPa·s
303 K, 101.3 kPa, x1 = 0.509 | 0.356 mPa·s
303 K, 101.3 kPa, x1 = 0.6399 | 0.356 mPa·s
303 K, 101.3 kPa, x1 = 0.7995 | 0.384 mPa·s
313 K, 101.3 kPa, x1 = 0.0471 | 0.395 mPa·s
313 K, 101.3 kPa, x1 = 0.1 | 0.36 mPa·s
313 K, 101.3 kPa, x1 = 0.1599 | 0.35 mPa·s
313 K, 101.3 kPa, x1 = 0.2285 | 0.333 mPa·s
313 K, 101.3 kPa, x1 = 0.3075 | 0.31 mPa·s
313 K, 101.3 kPa, x1 = 0.3998 | 0.294 mPa·s
313 K, 101.3 kPa, x1 = 0.509 | 0.3 mPa·s
313 K, 101.3 kPa, x1 = 0.6399 | 0.294 mPa·s
313 K, 101.3 kPa, x1 = 0.7995 | 0.332 mPa·s

CC(C)=O + CO
Conditions | viscosity [mPa·s]
293.15 K, 101 kPa, x1 = 0.025 | 0.563
293.15 K, 101 kPa, x1 = 0.098 | 0.507
293.15 K, 101 kPa, x1 = 0.244 | 0.435
293.15 K, 101 kPa, x1 = 0.385 | 0.389
293.15 K, 101 kPa, x1 = 0.487 | 0.371
293.15 K, 101 kPa, x1 = 0.703 | 0.342
293.15 K, 101 kPa, x1 = 0.865 | 0.333
298.15 K, 101.33 kPa, x1 = 0.059 | 0.4921
298.15 K, 101.33 kPa, x1 = 0.1261 | 0.455
298.15 K, 101.33 kPa, x1 = 0.1889 | 0.4225
298.15 K, 101.33 kPa, x1 = 0.2564 | 0.3965
298.15 K, 101.33 kPa, x1 = 0.3691 | 0.367
298.15 K, 101.33 kPa, x1 = 0.4581 | 0.3458
298.15 K, 101.33 kPa, x1 = 0.558 | 0.3292
298.15 K, 101.33 kPa, x2 = 0.7146 | 0.3932
303.15 K, 101 kPa, x1 = 0.025 | 0.496
303.15 K, 101 kPa, x1 = 0.098 | 0.449
303.15 K, 101 kPa, x1 = 0.244 | 0.389
303.15 K, 101 kPa, x1 = 0.385 | 0.352
303.15 K, 101 kPa, x1 = 0.703 | 0.314
303.15 K, 101 kPa, x1 = 0.865 | 0.308
313.15 K, 101 kPa, x1 = 0.025 | 0.435
313.15 K, 101 kPa, x1 = 0.244 | 0.349
313.15 K, 101 kPa, x1 = 0.385 | 0.322
313.15 K, 101 kPa, x1 = 0.487 | 0.311
313.15 K, 101 kPa, x1 = 0.703 | 0.291
313.15 K, 101 kPa, x1 = 0.865 | 0.287
318.15 K, 101 kPa, x1 = 0.025 | 0.411
318.15 K, 101 kPa, x1 = 0.098 | 0.378
318.15 K, 101 kPa, x1 = 0.244 | 0.335
318.15 K, 101 kPa, x1 = 0.385 | 0.311
318.15 K, 101 kPa, x1 = 0.487 | 0.3
318.15 K, 101 kPa, x1 = 0.703 | 0.282
318.15 K, 101 kPa, x1 = 0.865 | 0.277
323.15 K, 101 kPa, x1 = 0.025 | 0.386
323.15 K, 101 kPa, x1 = 0.098 | 0.362
323.15 K, 101 kPa, x1 = 0.244 | 0.32

CC1COC(=O)O1 (centres undefined) + CO
Conditions | viscosity [mPa·s]
298 K, 101.3 kPa, x1 = 0.0206 | 0.5726
298 K, 101.3 kPa, x1 = 0.0401 | 0.593
298 K, 101.3 kPa, x1 = 0.0604 | 0.6164
298 K, 101.3 kPa, x1 = 0.0808 | 0.6364
298 K, 101.3 kPa, x1 = 0.1018 | 0.6594
298 K, 101.3 kPa, x1 = 0.2016 | 0.7765
298 K, 101.3 kPa, x1 = 0.301 | 0.9078
298 K, 101.3 kPa, x1 = 0.401 | 1.058
298 K, 101.3 kPa, x1 = 0.5016 | 1.229
298 K, 101.3 kPa, x1 = 0.6002 | 1.418
298 K, 101.3 kPa, x1 = 0.7006 | 1.635
298 K, 101.3 kPa, x1 = 0.8004 | 1.877
298 K, 101.3 kPa, x1 = 0.9007 | 2.148
298.15 K, 101.33 kPa, x2 = 0.0512 | 2.266
298.15 K, 101.33 kPa, x2 = 0.0983 | 2.097
298.15 K, 101.33 kPa, x2 = 0.1406 | 1.958
298.15 K, 101.33 kPa, x2 = 0.1883 | 1.811
298.15 K, 101.33 kPa, x2 = 0.2587 | 1.616
298.15 K, 101.33 kPa, x2 = 0.343 | 1.414
298.15 K, 101.33 kPa, x2 = 0.3986 | 1.298
298.15 K, 101.33 kPa, x2 = 0.4723 | 1.167
298.15 K, 101.33 kPa, x2 = 0.5124 | 1.107
298.15 K, 101.33 kPa, x2 = 0.5819 | 1.001
298.15 K, 101.33 kPa, x2 = 0.6762 | 0.8678
298.15 K, 101.33 kPa, x2 = 0.758 | 0.7707
298.15 K, 101.33 kPa, x2 = 0.8297 | 0.6887
298.15 K, 101.33 kPa, x2 = 0.9256 | 0.5981
298.15 K, 101.33 kPa, x2 = 0.9495 | 0.5805
308.15 K, 101.33 kPa, x2 = 0.0512 | 1.895
308.15 K, 101.33 kPa, x2 = 0.0983 | 1.757
308.15 K, 101.33 kPa, x2 = 0.1406 | 1.648
308.15 K, 101.33 kPa, x2 = 0.1883 | 1.533
308.15 K, 101.33 kPa, x2 = 0.2587 | 1.377
308.15 K, 101.33 kPa, x2 = 0.343 | 1.213
308.15 K, 101.33 kPa, x2 = 0.4723 | 1.002
308.15 K, 101.33 kPa, x2 = 0.5124 | 0.948
308.15 K, 101.33 kPa, x2 = 0.5819 | 0.8651
308.15 K, 101.33 kPa, x2 = 0.6762 | 0.7581
308.15 K, 101.33 kPa, x2 = 0.8297 | 0.6034
308.15 K, 101.33 kPa, x2 = 0.8931 | 0.5517
308.15 K, 101.33 kPa, x2 = 0.9256 | 0.5282
308.15 K, 101.33 kPa, x2 = 0.9495 | 0.5118
318.15 K, 101.33 kPa, x2 = 0.0512 | 1.594
318.15 K, 101.33 kPa, x2 = 0.0983 | 1.48
318.15 K, 101.33 kPa, x2 = 0.1406 | 1.393
318.15 K, 101.33 kPa, x2 = 0.1883 | 1.296
318.15 K, 101.33 kPa, x2 = 0.2587 | 1.169
318.15 K, 101.33 kPa, x2 = 0.343 | 1.034
318.15 K, 101.33 kPa, x2 = 0.3986 | 0.9607
318.15 K, 101.33 kPa, x2 = 0.4723 | 0.8683
318.15 K, 101.33 kPa, x2 = 0.5124 | 0.8232
318.15 K, 101.33 kPa, x2 = 0.5819 | 0.7459
318.15 K, 101.33 kPa, x2 = 0.8297 | 0.5281
318.15 K, 101.33 kPa, x2 = 0.8931 | 0.4829
318.15 K, 101.33 kPa, x2 = 0.9256 | 0.4621
318.15 K, 101.33 kPa, x2 = 0.9495 | 0.4486
